# Assay results from patent US20220281931A1, “CHEMICALLY INDUCIBLE POLYPEPTIDE POLYMERIZATION” (Dana-Farber Cancer Institute, Inc., priority 2019, published 2022).
# What was measured:
# SuDHL4Cas9 cells = experiment: Whole proteome quantification using tandem mass tag mass spectrometry; type: cell-based, human; settings: SuDHL4 cells, 1 μM compound, 4 hours
# Method: 10×10^6 SuDHL4Cas9 cells were treated with DMSO, 1 μM BI-3802 or 1 μM BI-3812 for 1 h or 4 h in triplicates and cells were harvested by centrifugation. Samples were processed, measured and analyzed as previously described (Donovan, K. A. et al. Thalidomide promotes degradation of SALL4, a transcription factor implicated in Duane Radial Ray syndrome. Ehfe 7, doi:10.7554/eLife.38430 (2018)). Data are available in the PRIDE repository (PXD016185).
# [1] = molecular target: T1, StrepBCL6^5-360 / full length SIAH1 (Homo sapiens, UniProt P41182); experiment: In vitro ubiquitination of BCL6 by SIAH1; type: biochemical; settings: recombinant polypeptides, 1 μM BI-3802 vs DMSO
# T1 construct: using Strep II-Avi-BCL6^5-360 and Flag-SIAH1^FL; made in house; host or cells: Trichoplusia ni High Five insect cells, baculovirus
# Method: In vitro ubiquitination for identification of compatible E2 conjugating enzymes was performed by following the manufacturer's instructions (K-982, Boston Biochem), using Strep II-Avi-BCL6^5-360 and Flag-SIAH1^FL. Time-course in vitro ubiquitination was performed by mixing the substrate (BCL6, 2 μM), E3 (SIAH, 0.5 μM), E1 (UBA1, Boston Biochem, 0.2 μM, E2 (UBE2D1, Boston Biochem, 0.5 μM), and ubiquitin (Boston Biochem, 50 μM), with a reaction buffer (B-71, Boston Biochem) containing BI-3802 or DMSO (normalized to 1% DMSO) in 15 μL volume each. Reactions were initiated by adding 5 μL of Mg-ATP solution (B-20, Boston Biochem), incubated for up to 60 min at 37° C., and analyzed by western blot using Strep tag II Antibody HRP conjugate (71591-3, Sigma) at 1:4,000. 0.8×10^6 cells/mL SuDHL4 cells were treated with DMSO or 0.5 μM E1 Inhibitor (3 h)+1 μM BI-3802 (I h) and 200 μL of the cell suspension was immobilized on a slide using the Cytospin™ 4 Cytocentrifuge (CytoSpin 4, A78300003; 6000 rpm, 6 min). Medium was aspirated and cells were fixed with 4% formaldehyde diluted in warm PBS for 15 min at room temperature. Slides were washed three times for 5 min with PBS, blocked and permeabilized with blocking solution (5% Normal Goat Serum (Cell Signaling), 0.3% Triton X-100 in PBS) for 60 min and stained with anti-BCL6 antibody in blocking solution overnight at 4° C. […]
# [2] = molecular target: T2, eGFPBCL6^1-275 and V5SIAH1 (Homo sapiens, UniProt P41182); experiment: Immunofluorescence of SIAH1 and BCL6 foci in HEK293T cells; type: cell-based; settings: HEK293TCas9 cells, 0.5 μM MLN7243 pre-treatment 2 hours, 1 μM BI-3802 1 hour
# T2 construct: expressed in transfected cells; host or cells: HEK293TCas9 cells, lentiviral transduction
# Method: HEK293TCas9 cells expressing eGFPBCL6^250 and eGFPBCL6^275 constructs were transduced with V5SIAH1^C44S (infection rate >70%). […] The cells were fixed with 4% formaldehyde for 15 min and permeabilized with 0.1% Triton X100 for 30 min. Epitopes were blocked with 10% BSA for 10 min. Anti-V5 antibodies were added and incubated on slides overnight at 4° C. After removal of the primary antibodies and washes, Alexa Fluor 633-conjugated anti-mouse antibodies were added and incubated at room temperature for 45 min. Finally, the slides were stained with DAPI (BD Biosciences, #564907, 1:5,000 in H2O) and mounted with SlowFader™ Diamond Antifade Mountant (Thermo Fisher Scientific, S36963). Cells were imaged with the Leica TCS SP5 confocal microscope.
# BCL6 mRNA = experiment: Quantitative PCR of BCL6 mRNA; type: cell-based, human; settings: SuDHL4Cas9 cells, 1 μM, 1 hour
# Method: 1×10^6 SuDHL4Cas99 cells were treated with DMSO or 1 μM BI-3802 for 1 h, collected by centrifugation, washed with PBS, and flash frozen in dry ice. mRNA was isolated using the QIAGEN RNA kit (Qiagen, 74106). For cDNA synthesis, total RNA was reverse transcribed with SuperScript™ VILO™ Master Mix (Invitrogen, 11755050) before qPCR analysis with TaqMan Fast Advanced Master Mix (ThermoFisher Scientific, 4444557) for BCL6 (TaqMan, […], Life Technologies) and GAPDH (TaqMan, Hs02758991_g1). Reactions were run and analyzed on QStudio 6 FLX real-Time PCR System (ThermoFisher Scientific).
# BCL6^5-360 [3] = molecular target: T3, BCL6^5-360 (Homo sapiens, UniProt P41182); experiment: Size-exclusion chromatography of purified recombinant BCL6; type: biochemical; settings: purified BCL6^5-360, 2 μM compound
# T3 construct: size-exclusion chromatogram of purified BCL6^5-360 in the presence of DMSO; made in house; host or cells: Trichoplusia ni High Five insect cells, baculovirus
# Text: The human wild-type and mutant versions of BCL6 (residue 5-129 or 5-360) and SIAH1 variants (residue 90-282 (substrate binding domain, SBD) or full length), were cloned in pAC-derived vectors. Baculovirus for protein expression (Invitrogen) was generated by transfection into Spodoptera frugiperda (Sf9) cells at a density of 0.9×10^6 cells/mL grown in ESF 921 media (Expression Systems), followed by three rounds of infection in Sf9 cells to increase viral titer. Recombinant proteins were expressed and purified as N-terminal His6 C-terminal Spy (wild-type and mutant versions of BCL6^5-360), N-terminal Strep II-Avi (BCL6^5-129, BCL6^5-360, and SIAH1^SBD), and N-terminal Flag (SIAH1^FL) fusions in Trichoplusiani High Five insect cells using the baculovirus expression system (Invitrogen).
# BCL6^5-360 [4] = molecular target: T3, BCL6^5-360; experiment: Negative stain electron microscopy of BCL6; type: biochemical; settings: BCL6^5-360, 2 μM or 20 μM BI-3802
# Method: The incubated protein samples were rapidly diluted to 10 μg/mL (sample treated with DMSO) or 50 μg/ml (samples treated with BI-3802). A 5 μL aliquot was applied to glow-discharged 400-mesh carbon-coated nickel grids (CF400-NI-UL, Electron Microscopy Sciences). After incubating for 1 min, protein was wicked off with a filter paper and the grid was washed twice with distilled water, followed by two rounds of staining with 2% uranyl acetate for 5 s and 20 s, respectively. Grids were imaged at a nominal magnification of 40,000× on a JEOL JEM-1400Plus operated at 80 kV.
smiles,measurement,setting,value
"CNC(=O)COc1cc2cc(Nc3nc(N4C[C@H](C)C[C@H](C)C4)ncc3Cl)ccc2n(C)c1=O [BI-3802, 2-((6-((5-chloro-2-((3S,5R)-3,5-dimethylpiperidin-1-yl)pyrimidin-4-yl)amino)-1-methyl-2-oxo-1,2-dihydroquinolin-3-yl)oxy)-N-methylacetamide]",change in polypeptide abundance (whole proteome),SuDHL4Cas9 cells,BCL6 was the only polypeptide with significantly decreased abundance
same,rate and magnitude of BCL6 ubiquitination by SIAH1,[1],accelerated
same,SIAH1 colocalization to BCL6 foci,[2],SIAH1 colocalized to BCL6 foci in a V×P motif dependent manner
same,BCL6 mRNA expression,BCL6 mRNA,did not alter BCL6 mRNA expression
same,higher molecular weight species of recombinant BCL6,BCL6^5-360 [3],led to higher molecular weight species of BCL6
same,higher-order BCL6 structures by negative stain EM,BCL6^5-360 [4],formation of regular structures with a sinusoidal shape was observed
